In general, IC50 refers to the concentration at which inhibition is half-maximal. The term inhibition denotes the share of the control response that was lost under treatment.

Activity calls are given as the source filed them. The calls are words filed in the database; no cut-off is given here.

Data set [1] can be described thus: Antioxidant activity assessed as trolox equivalent of ORAC radical scavenging activity at 10 uM measured for 2 hrs by AAPH based fluorescence microplate reader. The format is functional.
The target in data set [2] is T1, Liver carboxylesterase (Sus scrofa, UniProt Q29550).
T1 sequence (Q29550 whole entry): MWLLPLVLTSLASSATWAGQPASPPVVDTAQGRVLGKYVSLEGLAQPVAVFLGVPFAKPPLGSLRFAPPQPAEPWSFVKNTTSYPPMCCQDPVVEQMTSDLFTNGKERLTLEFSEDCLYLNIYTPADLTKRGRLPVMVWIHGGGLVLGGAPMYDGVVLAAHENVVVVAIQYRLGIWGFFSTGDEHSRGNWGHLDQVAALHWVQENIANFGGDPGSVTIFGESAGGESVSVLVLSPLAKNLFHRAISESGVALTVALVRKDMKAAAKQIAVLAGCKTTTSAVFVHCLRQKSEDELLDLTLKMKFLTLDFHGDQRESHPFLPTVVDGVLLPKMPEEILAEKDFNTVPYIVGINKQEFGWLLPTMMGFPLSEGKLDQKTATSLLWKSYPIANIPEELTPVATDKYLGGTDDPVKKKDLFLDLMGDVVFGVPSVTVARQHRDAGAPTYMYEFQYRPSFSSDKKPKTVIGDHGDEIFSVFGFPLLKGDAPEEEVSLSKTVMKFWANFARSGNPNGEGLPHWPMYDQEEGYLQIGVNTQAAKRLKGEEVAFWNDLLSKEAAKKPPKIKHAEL
Kind of data set: Inhibition of porcine liver carboxylesterase using 4-nitrophenylacetate as substrate assessed as release of 4-nitrophenol by spectrophotometric analysis.

In data set [3] the target is Cholinesterase (Equus caballus) (UniProt P81908). Kind of data set: Inhibition of equine serum butyrylcholinesterase using butyrylthiocholine as substrate at 20 uM by Ellman's method relative to control. In general terms: Ellman's reagent forms a yellow product with free thiols.
Data set [4] is described as follows: Antioxidant activity assessed as reduction in ABTS radical measured after 1 hrs by UV/Vis microplate spectrophotometric analysis. The format is functional.
Data set [5] can be described thus: Antioxidant activity assessed as ORAC radical scavenging activity by measuring fold change in trolox equivalent at 10 uM measured for 2 hrs by AAPH based fluorescence microplate reader relative to trolox. The format is functional.
Data set [6] in a line: Antioxidant activity assessed as ABTS radical scavenging activity by measuring trolox equivalent antioxidant capacity after 1 hrs by UV/Vis microplate spectrophotometric analysis. The class given is functional.
Data set [7] concerns the target Acetylcholinesterase (Homo sapiens) (UniProt P22303). The experiment in a line: Inhibition of human erythrocyte acetylcholinesterase using acetylthiocholine as substrate at 20 uM by Ellman's method relative to control.
Data set [8] can be described thus: Antioxidant activity assessed as trolox equivalent of FRAP radical scavenging activity measured after 1 hrs by spectrophotometric analysis. The format is functional.
Data set [9] deals with T1, Liver carboxylesterase. The experiment in a line: Inhibition of porcine liver carboxylesterase using 4-nitrophenylacetate as substrate assessed as release of 4-nitrophenol at 20 uM by spectrophotometric analysis relative to control. The following applies: pig, porcine liver carboxylesterase (isolated enzyme), probe 4-nitrophenylacetate.
Data set [10] can be described thus: Antioxidant activity against AAPH-induced oxidative stress in Sprague-Dawley rat erythrocytes assessed as membrane stabilizing activity by measuring hemolysis at 100 uM preincubated for 15 mins followed by AAPH addition and measured after 3 hrs by microplate reader analysis (reference value: 88.6 +/- 3.7%). The class given is functional, Erythrocyte. The conditions noted are these: time 195 min, 3.25 h.

The nature of data set [11]: Metal chelating activity assessed as Fe2+-compound complex formation by measuring absorbance at 400 uM measured after 30 mins in presence of FeCl2.4H2O by UV-Vis spectroscopic analysis (reference value: 225 to 374 nanometer).
Data set [12] can be described thus: Hemolytic activity in AAPH-induced Sprague-Dawley rat erythrocytes assessed as hemolysis at 100 uM measured after 3 hrs by microplate reader analysis relative to control. The format is toxicity, cell-based, Erythrocyte. The conditions noted are these: read-out: Activity.
Data set [13] is described as follows: Antioxidant activity against AAPH-induced oxidative stress in Sprague-Dawley rat erythrocytes assessed as inhibition of lipid peroxidation by measuring fold change at 100 uM preincubated for 15 mins followed by AAPH addition and measured after 3 hrs by TBARS assay (reference value: 1). The format is functional, Erythrocyte. The following applies: time 195 min, 3.25 h.

Data set [14] deals with T2, Liver carboxylesterase 1 (Homo sapiens, UniProt P23141).
T2 sequence (P23141 whole entry): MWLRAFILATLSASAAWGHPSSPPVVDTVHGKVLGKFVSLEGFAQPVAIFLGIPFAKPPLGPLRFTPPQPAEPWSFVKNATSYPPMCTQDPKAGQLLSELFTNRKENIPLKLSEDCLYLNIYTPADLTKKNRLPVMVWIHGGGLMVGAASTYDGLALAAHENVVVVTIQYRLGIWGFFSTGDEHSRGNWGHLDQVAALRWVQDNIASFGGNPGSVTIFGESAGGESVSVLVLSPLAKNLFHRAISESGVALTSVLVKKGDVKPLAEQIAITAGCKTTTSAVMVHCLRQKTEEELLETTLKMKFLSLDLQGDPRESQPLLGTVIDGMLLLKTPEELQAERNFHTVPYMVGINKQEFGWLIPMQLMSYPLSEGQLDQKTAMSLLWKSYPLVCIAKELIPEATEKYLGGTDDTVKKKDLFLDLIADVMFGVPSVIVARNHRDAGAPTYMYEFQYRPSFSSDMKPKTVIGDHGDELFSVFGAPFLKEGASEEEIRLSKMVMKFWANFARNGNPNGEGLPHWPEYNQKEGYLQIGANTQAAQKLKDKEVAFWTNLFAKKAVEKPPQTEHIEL
The experiment in a line: Inhibition of human CES1 using 4-nitrophenylacetate as substrate assessed as release of 4-nitrophenol by spectrophotometric analysis.

Data set [15] concerns the target T3, Cocaine esterase (Homo sapiens, UniProt O00748).
T3 sequence (O00748 whole entry): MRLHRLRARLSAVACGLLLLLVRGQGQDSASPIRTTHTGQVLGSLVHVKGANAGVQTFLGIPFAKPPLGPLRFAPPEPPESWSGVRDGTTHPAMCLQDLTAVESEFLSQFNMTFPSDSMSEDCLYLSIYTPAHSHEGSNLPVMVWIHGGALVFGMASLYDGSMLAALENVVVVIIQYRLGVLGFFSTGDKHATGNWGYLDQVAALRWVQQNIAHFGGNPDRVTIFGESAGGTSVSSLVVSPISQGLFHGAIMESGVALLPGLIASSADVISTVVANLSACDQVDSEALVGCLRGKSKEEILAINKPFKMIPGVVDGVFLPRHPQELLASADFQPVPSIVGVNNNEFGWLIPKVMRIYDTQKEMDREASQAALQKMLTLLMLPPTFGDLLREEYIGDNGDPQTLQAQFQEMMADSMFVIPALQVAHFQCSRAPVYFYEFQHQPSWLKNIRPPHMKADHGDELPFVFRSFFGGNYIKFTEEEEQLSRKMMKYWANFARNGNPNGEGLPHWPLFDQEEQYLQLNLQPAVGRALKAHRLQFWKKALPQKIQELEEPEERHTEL
The experiment in a line: Inhibition of human CES2 using 4-nitrophenylacetate as substrate assessed as release of 4-nitrophenol by spectrophotometric analysis.

Chain of Cholinesterase (Equus caballus) (P81908 whole entry): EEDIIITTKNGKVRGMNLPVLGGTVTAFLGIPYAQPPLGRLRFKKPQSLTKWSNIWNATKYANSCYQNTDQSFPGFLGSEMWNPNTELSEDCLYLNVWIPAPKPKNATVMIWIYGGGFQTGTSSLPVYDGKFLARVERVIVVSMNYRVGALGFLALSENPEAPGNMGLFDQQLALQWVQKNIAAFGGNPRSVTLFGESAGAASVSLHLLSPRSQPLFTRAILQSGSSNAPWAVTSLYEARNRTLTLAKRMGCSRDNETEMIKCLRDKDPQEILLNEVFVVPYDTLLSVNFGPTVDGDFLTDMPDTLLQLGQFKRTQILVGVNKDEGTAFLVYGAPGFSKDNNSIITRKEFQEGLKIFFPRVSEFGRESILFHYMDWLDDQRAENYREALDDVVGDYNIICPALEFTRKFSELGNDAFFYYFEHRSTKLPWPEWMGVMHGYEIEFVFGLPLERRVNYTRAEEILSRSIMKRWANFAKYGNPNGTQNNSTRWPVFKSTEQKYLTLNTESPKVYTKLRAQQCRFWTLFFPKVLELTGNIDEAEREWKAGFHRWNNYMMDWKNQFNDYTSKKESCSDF
Chain of Acetylcholinesterase (Homo sapiens) (P22303 whole entry): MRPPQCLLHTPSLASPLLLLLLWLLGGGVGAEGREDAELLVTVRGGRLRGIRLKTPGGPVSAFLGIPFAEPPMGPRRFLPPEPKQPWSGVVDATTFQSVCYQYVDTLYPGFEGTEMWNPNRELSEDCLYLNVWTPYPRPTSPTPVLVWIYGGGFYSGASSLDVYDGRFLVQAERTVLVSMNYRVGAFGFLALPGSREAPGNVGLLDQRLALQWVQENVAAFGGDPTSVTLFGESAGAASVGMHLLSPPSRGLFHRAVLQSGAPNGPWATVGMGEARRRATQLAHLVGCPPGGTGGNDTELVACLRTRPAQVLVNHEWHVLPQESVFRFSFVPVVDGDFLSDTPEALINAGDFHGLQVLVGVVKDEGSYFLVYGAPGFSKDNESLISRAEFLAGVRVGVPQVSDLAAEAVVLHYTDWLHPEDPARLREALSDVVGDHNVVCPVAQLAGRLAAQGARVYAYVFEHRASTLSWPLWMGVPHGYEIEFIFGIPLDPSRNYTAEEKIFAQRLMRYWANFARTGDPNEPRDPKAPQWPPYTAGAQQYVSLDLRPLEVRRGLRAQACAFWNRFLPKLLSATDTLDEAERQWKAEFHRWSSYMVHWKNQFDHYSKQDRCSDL

Regarding `O=C(O)/C(=N\Nc1ccccc1)C(=O)C(F)(F)F`, the results for the Activity in [1], in data set [6] and in data set [8] were 3.7, 1.6 and 1.48, respectively. The IC50 in data set [2] came out at 0.75 µM; in data set [4], 8.6 µM. In addition, the values for the inhibition in [3] and in data set [7] were 4% and 16.5%, respectively. The fold change (FC) in data set [5] is over 3.
Turning to `CCOC(=O)c1ccc(N/N=C(/C(C)=O)C(=O)O)cc1`, the Activity in [1] was found to be 0.47; in [6] it was 1.36; in data set [8], 0.19. The inhibition result in data set [3] and in [7] was “inactive” each time. The IC50 in data set [4] came out at 10.2 µM. In [9], the inhibition at 20 µM is 16.1%.
Regarding `COc1ccc(N/N=C(\C(=O)O)C(=O)C(F)(F)F)cc1`, the Activity in data set [1] is 3.6; in [10] it was 58.6%; in data set [11] it was 267 nm; in data set [8], 2.77. In addition, the fold change (FC) in [5] was over 3; in data set [13], 0.64. For the same compound, in data set [12], the hemolysis at 3 h, 100 µM is 2%.
Turning to `CCOC(=O)c1ccc(N/N=C(\C(=O)O)C(=O)C(F)(F)F)cc1`, the fold change (FC) in data set [5] is over 3.
For the compound `COc1ccc(N/N=C(\C(=O)O)C(=O)C(F)(F)C(F)(F)C(F)(F)C(F)(F)F)cc1`, the values for the Activity in data set [1], in [6] and in [8] were 3.87, 1.9 and 1.68, respectively. In addition, the half-inhibitory concentration (IC50) in [2] was 0.297 µM; in [4], 9.5 µM. Besides, the inhibition stood at 19.9% in [3] and 4.4% in [7]. Further, the fold change (FC) in data set [5] is over 3.
With `COc1ccc(N/N=C(\C(=O)O)C(=O)C(F)(F)C(F)F)cc1`, the Activity stood at 3.73 in [1], 1.8 in data set [6] and 1.9 in [8]. Further, the concentration for half-maximal inhibition (IC50) is 52.1 µM in data set [2] and 10.2 µM in data set [4]. The inhibition in data set [3] was found to be 3.5%; in data set [7], 4.2%. Besides, the fold change (FC) in [5] is over 3.
As for `Cc1ccc(N/N=C(\C(=O)O)C(=O)C(F)(F)C(F)F)cc1`, the values for the concentration for half-maximal inhibition (IC50) in data set [2] and in data set [4] were 5.58 µM and 9.3 µM, respectively. Further, the inhibition in [3] was found to be 5.7%. In addition, in data set [5], the fold change (FC) was over 3. In addition, the Activity came to 1.7 in data set [6] and 1.69 in [8]. In addition, in [7], the inhibition entry is “inactive”.
Consider `Cc1c(C)c2c(c(C)c1O)CCC(C)(C(=O)O)O2` (stereo unspecified) [TROLOX], for which the Activity in [1] came out at 1; in [10], 56.7%; in data set [6], 1; in data set [8], 1. Also, in data set [4], the concentration for half-maximal inhibition (IC50) turned out to be 20.4 µM. The “fold change (FC)” value in data set [13] is on record as 0.85.
For the compound `CC(=O)/C(=N/Nc1ccc(C)cc1)C(=O)O`, the Activity turned out to be 3.37 in data set [1] and 1.69 in [8]. In [5], the fold change (FC) was over 3.
`CC(=O)/C(=N/Nc1ccccc1)C(=O)O`: the Activity in data set [1] is 3.43; in data set [6], 1.6; in data set [8], 0.79. The inhibition entry in data set [3] is “inactive”. In addition, the concentration for half-maximal inhibition (IC50) in data set [4] is 9.8 µM. For the same compound, in [5], the fold change (FC) is over 3. For the same compound, in data set [9], the inhibition at 20 µM turned out to be 17.9%. In addition, the inhibition in data set [7] was 4.7%.
For the compound `CCOC(=O)c1ccccc1N/N=C(\C(=O)O)C(=O)C(F)(F)C(F)(F)C(F)(F)C(F)(F)F`, the Activity amounted to 1.7 in [1] and 0.02 in data set [6]. In addition, the IC50 in data set [2] amounted to 0.14 µM. Moreover, the inhibition is 13.7% in [3] and 24% in data set [7]. Besides, the fold change (FC) in data set [5] was over 3.
Turning to `CCOC(=O)c1ccccc1N/N=C(\C(=O)O)C(=O)C(F)(F)F`, the fold change (FC) in data set [5] was over 3.
Consider `Cc1ccc(N/N=C(\C(=O)O)C(=O)C(F)F)cc1`, for which the Activity was determined as 3.13 in data set [1], 1.67 in data set [6] and 2.1 in data set [8]. Besides, the inhibition result in data set [3] was “inactive”. In addition, in [4], the IC50 is 9.8 µM. Moreover, the fold change (FC) in data set [5] is over 3. Moreover, the inhibition at 20 µM in [9] was 23.8%. Moreover, the inhibition in data set [7] was determined as 10.2%.
For `CC(=O)/C(=N/Nc1ccc(C(=O)O)cc1)C(=O)O`, the Activity amounted to 2.2 in data set [1], 1.25 in [6] and 0.41 in [8]. The inhibition in data set [3] came to 8.2%; in data set [7], 5.8%. Besides, in data set [4], the IC50 is 10.3 µM. Moreover, in data set [5], the fold change (FC) was over 3. For the same compound, the inhibition at 20 µM in [9] was 18.6%.
With `Cc1ccc(N/N=C(\C(=O)O)C(=O)C(F)(F)F)cc1`, the values for the Activity in data set [1] and in data set [8] were 3.03 and 2.63, respectively. Moreover, the IC50 was determined as 0.921 µM in [14] and 0.097 µM in data set [15]. The fold change (FC) in [5] was over 3.
Consider `O=C(O)/C(=N\Nc1ccc([N+](=O)[O-])cc1)C(=O)C(F)(F)F`, for which the fold change (FC) in data set [5] was over 3. For the same compound, the Activity in data set [8] turned out to be 0.24.
`Cc1ccc(N/N=C(\C(=O)O)C(=O)C(F)(F)C(F)(F)C(F)(F)F)cc1`: the Activity in data set [1] worked out at 3.27; in data set [6], 1.97; in data set [8], 0.68. Moreover, the IC50 came to 0.047 µM in data set [2] and 9.1 µM in [4]. The inhibition in data set [3] came out at 11.6%; in data set [7] it was 14.7%. The fold change (FC) in data set [5] was over 3.
Take `O=[N+]([O-])c1ccc(OP(=O)(O)Oc2ccc([N+](=O)[O-])cc2)cc1`: the inhibition result in [3] and in data set [7] was “inactive” each time.
Turning to `Cc1ccc(N/N=C(\C(=O)O)C(=O)C(F)(F)C(F)(F)F)cc1`, the Activity in data set [1] was determined as 3.7; in data set [6], 1.45; in data set [8] it was 1.71. Also, the IC50 in data set [2] was found to be 0.122 µM; in [4] it was 9.9 µM. Moreover, the inhibition stood at 15.5% in data set [3] and 10.2% in [7]. In addition, in data set [5], the fold change (FC) is over 3.

Source of the values: ChEMBL document CHEMBL6087406, “2-Arylhydrazinylidene-3-oxo-3-polyfluoroalkylpropanoic acids as selective and effective carboxylesterase inhibitors with powerful antioxidant potential” (Bioorg Med Chem, 2024).
